The record followed here is patent US20250282831A1, “NOVEL PROTEIN AND NUCLEIC ACID SEQUENCES FOR COVID-19 VACCINES” (Dompe' Farmaceutici SPA, priority 2021, published 2025).

Experiment [1] deals with THP-1. Nature of the experiment: Proteome profile (cytokine array) of conditioned media from differentiated THP-1 cells. It is filed as cell-based, Human.
Experiment [2] concerns MCF-7 breast cancer cells. Nature of the experiment: BrdU proliferation assay in MCF-7 breast cancer cell line. It is filed as cell-based. The note with it: 24 hours.
Experiment [3] concerns Osteoclasts from RAW264.7 macrophages. Nature of the experiment: Estrogen-like activity: TRAP activity by ELISA in osteoclasts. It counts as cell-based, murine. The note with it: RANKL-differentiated osteoclasts; 24 h; 1 nM Estradiol or 10 ng/ml spike proteins. For orientation: In an ELISA, binding on a coated surface is turned into a signal by an enzyme label.

For `O=C(c1ccc(OCCN2CCCCC2)cc1)c1c(-c2ccc(O)cc2)sc2cc(O)ccc12` [ral, Raloxifene], the “effect on spike-induced IL-8 up-regulation (in words)” value in experiment [1] is given as “effective in counteracting the effect of spike”. Also, the “effect on CHI3L1 up-regulation (in words)” value in experiment [1] (co-treatment with spike and/or estradiol, 24 h) was “able to counteract only the effects of spike alone”. Besides, in experiment [1] (co-treatment with spike, 24 h), the “effect on OPN upregulation (in words)” value is given as “able to counteract the effects of spike alone”. Also, in experiment [2] (peptides 10 ug/ml, spike 10 ng/ml, raloxifene 2 μM), the “cell proliferation, Mean” value is 109.5 percentage of control. In addition, the “effect on estradiol- and spike-induced proliferation (in words)” value in experiment [2] (co-treatment with raloxifene 2 μM) is given as “counteracted”.
For `C[C@]12CC[C@@H]3c4ccc(O)cc4CC[C@H]3[C@@H]1CC[C@@H]2O` [Estradiol], the “TRAP levels, Mean” value in experiment [3] stood at 0.25 U/L.
